Experimental data taken from patent US10793563B2, “GCN2 inhibitors and uses thereof” (Merck Patent GmbH, priority 2018, dated 2020).

Tests used:
[1] = molecular target: GCN2 kinase (Homo sapiens (Human), UniProt Q9P2K8); experiment: GCN2 Enzyme Inhibition Assay (Transcreener ADP2 fluorescence polarization); assay type: biochemical; conditions: 280 μM ATP, 200 μM (RS)7 peptide, 4 nM GCN2, 25° C.; for Ki: Ki(app)
In short: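 At 25 °C, GCN2 kinase (typical final concentration 4 nM) and (RS)7 peptide in Tris-HCl pH 7.5 buffer with MgCl2, NaCl and DTT were preincubated with compound for 10 min, then ATP was added for a 1 h reaction. ADP was read by FP with antibody/Alexa633 tracer. Non-linear tight-binding analysis gave IC50 and apparent Ki.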

[2] = molecular target: intracellular GCN2 (phosphorylation of the GCN2 substrate eIF2α) (Homo sapiens (Human), UniProt Q9P2K8); experiment: GCN2 Cellular Inhibition Assay (AlphaScreen SureFire P-eIF2α Ser51, borrelidin-treated U2OS cells); assay type: cell-based; conditions: 10 μM borrelidin, 1 h, phosphorylated eIF2α Ser51, read-out: GCN2 Biomarker (IC50)
In short: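 Phospho-eIF2α (Ser51) measured by AlphaScreen SureFire in lysates of U2OS cells stimulated 1 h at 37 °C with 10 μM borrelidin alongside compound, 4-fold dilutions from 40 μM. Inhibition expressed as percent relative to borrelidin-alone controls.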

Sequence of GCN2 kinase (Q9P2K8 whole entry): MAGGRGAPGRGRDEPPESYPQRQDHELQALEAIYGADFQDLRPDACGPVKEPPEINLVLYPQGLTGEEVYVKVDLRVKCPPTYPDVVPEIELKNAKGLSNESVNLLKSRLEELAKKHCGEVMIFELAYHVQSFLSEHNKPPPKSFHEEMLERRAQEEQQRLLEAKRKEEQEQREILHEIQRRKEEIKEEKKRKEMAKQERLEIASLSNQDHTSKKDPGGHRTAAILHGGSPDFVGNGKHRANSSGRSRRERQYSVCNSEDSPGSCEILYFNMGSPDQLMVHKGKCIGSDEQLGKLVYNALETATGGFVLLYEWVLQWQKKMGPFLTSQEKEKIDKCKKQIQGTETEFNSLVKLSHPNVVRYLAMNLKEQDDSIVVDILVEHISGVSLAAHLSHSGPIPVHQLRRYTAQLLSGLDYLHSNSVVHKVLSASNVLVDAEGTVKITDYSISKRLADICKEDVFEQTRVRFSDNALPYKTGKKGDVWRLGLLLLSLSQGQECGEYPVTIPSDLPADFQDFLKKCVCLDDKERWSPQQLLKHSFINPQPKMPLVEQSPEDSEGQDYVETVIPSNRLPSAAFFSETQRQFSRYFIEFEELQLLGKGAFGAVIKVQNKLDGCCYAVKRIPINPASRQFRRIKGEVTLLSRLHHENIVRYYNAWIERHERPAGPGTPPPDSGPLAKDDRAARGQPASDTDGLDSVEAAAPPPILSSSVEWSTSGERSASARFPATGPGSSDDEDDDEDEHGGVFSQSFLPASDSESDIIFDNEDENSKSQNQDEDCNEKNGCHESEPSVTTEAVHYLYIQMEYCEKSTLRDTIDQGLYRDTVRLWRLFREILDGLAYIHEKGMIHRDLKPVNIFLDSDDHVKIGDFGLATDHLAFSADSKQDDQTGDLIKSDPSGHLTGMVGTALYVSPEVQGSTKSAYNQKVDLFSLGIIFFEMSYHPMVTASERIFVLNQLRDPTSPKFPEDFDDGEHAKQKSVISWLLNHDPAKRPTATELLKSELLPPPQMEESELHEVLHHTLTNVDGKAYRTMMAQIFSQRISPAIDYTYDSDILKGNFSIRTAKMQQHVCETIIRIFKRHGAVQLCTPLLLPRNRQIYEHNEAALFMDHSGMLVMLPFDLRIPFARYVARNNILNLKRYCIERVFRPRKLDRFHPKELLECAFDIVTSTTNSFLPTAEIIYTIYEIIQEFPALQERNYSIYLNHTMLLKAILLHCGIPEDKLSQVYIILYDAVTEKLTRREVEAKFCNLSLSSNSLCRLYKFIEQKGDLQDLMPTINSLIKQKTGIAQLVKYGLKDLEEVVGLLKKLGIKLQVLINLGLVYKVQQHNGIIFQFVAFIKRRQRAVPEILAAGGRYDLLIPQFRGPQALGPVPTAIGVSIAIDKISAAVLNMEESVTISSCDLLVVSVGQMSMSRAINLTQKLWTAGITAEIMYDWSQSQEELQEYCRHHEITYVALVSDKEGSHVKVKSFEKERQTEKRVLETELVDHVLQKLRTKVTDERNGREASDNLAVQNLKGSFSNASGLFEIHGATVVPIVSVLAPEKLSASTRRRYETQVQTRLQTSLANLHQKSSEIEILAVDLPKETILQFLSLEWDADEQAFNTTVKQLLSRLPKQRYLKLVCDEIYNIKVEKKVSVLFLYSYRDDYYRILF
Sequence of intracellular GCN2 (phosphorylation of the GCN2 substrate eIF2α) (Q9P2K8 whole entry): as above

| Structure (SMILES) | IC50 [1] [nM] | IC50 [2] [nM] | Ki [1] [nM] |
| --- | --- | --- | --- |
| OCC1CC(N2CCN(c3ccnc(-c4cnc5ccc(C(F)(F)F)cn45)n3)CC2c2cn[nH]c2)C1 (centres unmarked) [I-390, (3-(2-(1H-pyrazol-4-yl)-4-(2-(6-(trifluoromethyl)imidazo[1,2-a]pyridin-3-yl)pyrimidin-4-yl)piperazin-1-yl)cyclobutyl)methanol] | < 10 | < 500 |  |
| C[C@@H]1[C@H](c2cn[nH]c2)N(C2COC2)CCN1c1ccnc(-c2cnc3ccc(C(F)(F)F)cn23)n1 [I-362, 4-[(2R,3 S)-2-methyl-4-(oxetan-3-yl)-3-(1H-pyrazol-4-yl)piperazin-1-yl]-2-[6-(trifluoromethyl)imidazo[1,2-a]pyridin-3-yl]pyrimidine] | < 10 | < 500 |  |
| Cc1n[nH]cc1C1CC(O)CN(c2ccnc(-c3cnc4ccc(Cl)cn34)n2)C1 (centres unmarked) [I-302, 1-(2-(6-chloroimidazo[1,2-a]pyridin-3-yl)pyrimidin-4-yl)-5-(3-methyl-1H-pyrazol-4-yl)piperidin-3-ol] | < 10 | < 500 |  |
| C[C@H](NS(C)(=O)=O)[C@H]1[C@@H](C)N(c2ccnc(-c3cnc4ccc(C(F)(F)F)cn34)n2)CCN1C1CC1 [I-507, N—((S)-1-((2R,3R)-1-cyclopropyl-3-methyl-4-(2-(6-(trifluoromethyl)imidazo[1,2-a]pyridin-3-yl)pyrimidin-4-yl)piperazin-2-yl)ethyl)methanesulfonamide] | 100 to 1000 | 500 to 5000 |  |
| C[C@@H](NS(C)(=O)=O)[C@@H]1[C@H](C)N(c2ccnc(-c3cnc4ccc(C(F)(F)F)cn34)n2)CCN1C1CC1 [I-506, N—((R)-1-((2 S,3 S)-1-cyclopropyl-3-methyl-4-(2-(6-(trifluoromethyl)imidazo[1,2-a]pyridin-3-yl)pyrimidin-4-yl)piperazin-2-yl)ethyl)methanesulfonamide] | 10 to 100 | 500 to 5000 |  |
| FC(F)(F)c1ccc2ncc(-c3nccc(N4CCN(CC5CC5(F)F)C(c5cn[nH]c5)C4)n3)n2c1 (centres unmarked) [I-470, 3-(4-(4-((2,2-difluorocyclopropyl)methyl)-3-(1H-pyrazol-4-yl)piperazin-1-yl)pyrimidin-2-yl)-6-(trifluoromethyl)imidazo[1,2-a]pyridine] | < 10 | < 500 |  |
| Cc1cc(-c2cnc3ccc(Cl)cn23)nc(N2C[C@@H](C)C[C@@H](c3cn[nH]c3)C2)n1 [I-208, 6-chloro-3-(6-methyl-2-((3S,5S)-3-methyl-5-(1H-pyrazol-4-yl)piperidin-1-yl)pyrimidin-4-yl)imidazo[1,2-a]pyridine] | 10 to 100 | < 500 |  |
| FC(F)(F)c1ccc2ncc(-c3nccc(N4CCN[C@@H](c5cn[nH]c5)C4)n3)n2c1 [I-533, (S)-3-(4-(3-(1H-pyrazol-4-yl)piperazin-1-yl)pyrimidin-2-yl)-6-(trifluoromethyl)imidazo[1,2-a]pyridine] | < 10 | < 500 |  |
| Cn1cc(NC(=O)[C@H]2CCCN(c3ccnc(-c4cnc5cc(F)c(Cl)cn45)n3)C2)cn1 [I-59, (S)-1-[2-(6-Chloro-7-fluoro-imidazo[1,2-a]pyridine-3-yl)-pyrimidin-4-yl]-piperidine-3-carboxylic acid (1-methyl-1H-pyrazol-4-yl)-amide] |  | > 5000 | 100 to 1000 |
| Cc1cc(-c2cnc3ccc(Cl)cn23)nc(N2C[C@@H](C)O[C@@H](c3c[nH]nc3C)C2)n1 [I-222, (2R,6S)-4-(4-(6-chloroimidazo[1,2-a]pyridin-3-yl)-6-methylpyrimidin-2-yl)-2-methyl-6-(5-methyl-1H-pyrazol-4-yl)morpholine] | 10 to 100 | < 500 |  |
| Cc1cc(-c2cnc3ccc(Cl)cn23)nc(N2C[C@@H](c3c[nH]nc3C)O[C@@H](C)C2)n1 [I-221, (2S,6R)-4-(4-(6-chloroimidazo[1,2-a]pyridin-3-yl)-6-methylpyrimidin-2-yl)-2-methyl-6-(5-methyl-1H-pyrazol-4-yl)morpholine] | < 10 | < 500 |  |
| Cn1nccc1C(=O)N1CCN(c2ccnc(-c3cnc4ccc(C(F)(F)F)cn34)n2)CC1c1cn[nH]c1 (centres unmarked) [I-419, (2-(1H-pyrazol-4-yl)-4-(2-(6-(trifluoromethyl)imidazo[1,2-a]pyridin-3-yl)pyrimidin-4-yl)piperazin-1-yl)(1-methyl-1H-pyrazol-5-yl)methanone] | 10 to 100 | 500 to 5000 |  |
| Cc1cnc(N2C[C@@H](C)C[C@H](c3cn[nH]c3)C2)nc1-c1cnc2ccc(Cl)cn12 (stereo in doubt) [I-197, 6-chloro-3-(5-methyl-2-((3 S, 5R)-3-methyl-5-(1H-pyrazol-4-yl)piperidin-1-yl)pyrimidin-4-yl)imidazo[1,2-a]pyridine] | 10 to 100 | < 500 |  |
| FC(F)(F)c1ccc2ncc(-c3nccc(N4CCN(C[C@@H]5CC56CCOCC6)[C@@H](c5cn[nH]c5)C4)n3)n2c1 [I-522, 3-(4-((S)-4-(((R)-6-oxaspiro[2.5]octan-1-yl)methyl)-3-(1H-pyrazol-4-yl)piperazin-1-yl)pyrimidin-2-yl)-6-(trifluoromethyl)imidazo[1,2-a]pyridine] | < 10 | < 500 |  |
| O=S(=O)(NC1CC1)c1ccc2ncc(-c3nccc(N4CCCC(c5cn[nH]c5)C4)n3)n2c1 (centres unmarked) [I-318, 3-(4-(3-(1H-pyrazol-4-yl)piperidin-1-yl)pyrimidin-2-yl)-N-cyclopropylimidazo[1,2-a]pyridine-6-sulfonamide] | 100 to 1000 | > 5000 |  |
| Cc1[nH]ncc1C1NCCN(c2ccnc(-c3cnc4ccc(C(F)(F)F)cn34)n2)C1C (centres unmarked) [I-321, 3-(4-(2-methyl-3-(5-methyl-1H-pyrazol-4-yl)piperazin-1-yl)pyrimidin-2-yl)-6-(trifluoromethyl)imidazo[1,2-a]pyridine] | 10 to 100 | 500 to 5000 |  |
| C[C@H]1C[C@@H](c2cn[nH]c2)CN(c2nccc(-c3cnc4ccc(Cl)cn34)n2)C1 [I-199, 6-chloro-3-(2-((3S,5S)-3-methyl-5-(1H-pyrazol-4-yl)piperidin-1-yl)pyrimidin-4-yl)imidazo[1,2-a]pyridine] | < 10 | < 500 |  |
| FC(F)(F)c1ccc2ncc(-c3nccc(N4CCN[C@H](c5cn[nH]c5)C4)n3)n2c1 [I-532, (R)-3-(4-(3-(1H-pyrazol-4-yl)piperazin-1-yl)pyrimidin-2-yl)-6-(trifluoromethyl)imidazo[1,2-a]pyridine] | 10 to 100 | 500 to 5000 |  |
| CS(=O)(=O)NCC1CCN(c2ccnc(-c3cnc4cc(F)c(Br)cn34)n2)C1 (centres unmarked) [I-25, N-[[1-[2-(6-Bromo-7-fluoro-imidazo[1,2-a]pyridin-3-yl)pyrimidin-4-yl]pyrrolidin-3-yl]methyl]methanesulfonamide] |  | 500 to 5000 | < 10 |
| C[C@@H]1C[C@H](N=S(C)(C)=O)CN(c2nccc(-c3cnc4cc(Cl)c(Cl)cn34)n2)C1 [I-244, (((3 S,5R)-1-(4-(6,7-dichloroimidazo[1,2-a]pyridin-3-yl)pyrimidin-2-yl)-5-methylpiperidin-3-yl)imino)dimethyl-λ6-sulfanone] | 10 to 100 | 500 to 5000 |  |
| NS(=O)(=O)c1ccc2ncc(-c3nccc(N4CCCC(c5cn[nH]c5)C4)n3)n2c1 (centres unmarked) [I-320, 3-(4-(3-(1H-pyrazol-4-yl)piperidin-1-yl)pyrimidin-2-yl)imidazo[1,2-a]pyridine-6-sulfonamide] | 10 to 100 | 500 to 5000 |  |
| O=C(c1cnoc1)N1CCN(c2ccnc(-c3cnc4ccc(C(F)(F)F)cn34)n2)CC1c1cn[nH]c1 (centres unmarked) [I-444, (2-(1H-pyrazol-4-yl)-4-(2-(6-(trifluoromethyl)imidazo[1,2-a]pyridin-3-yl)pyrimidin-4-yl)piperazin-1-yl)(isoxazol-4-yl)methanone] | 10 to 100 | 500 to 5000 |  |
| NC(=O)C1CN(c2ccnc(-c3cnc4ccc(C(F)(F)F)cn34)n2)CCN1C1COC1 (centres unmarked) [I-263, 1-(oxetan-3-yl)-4-(2-(6-(trifluoromethyl)imidazo[1,2-a]pyridin-3-yl)pyrimidin-4-yl)piperazine-2-carboxamide] | 10 to 100 | 500 to 5000 |  |
| Cc1oncc1[C@@H]1CN(c2ccnc(-c3cnc4ccc(C(F)(F)F)cn34)n2)C[C@@H](C)O1 [I-343, (2R,6R)-2-methyl-6-(5-methylisoxazol-4-yl)-4-(2-(6-(trifluoromethyl)imidazo[1,2-a]pyridin-3-yl)pyrimidin-4-yl)morpholine] | 100 to 1000 | 500 to 5000 |  |
| C[C@H]1[C@@H](CNS(C)(=O)=O)N(C2CC2)CCN1c1nccc(-c2cnc3ccc(C(F)(F)F)cn23)n1 [I-541, N-(((2R,3 S)-1-cyclopropyl-3-methyl-4-(4-(6-(trifluoromethyl)imidazo[1,2-a]pyridin-3-yl)pyrimidin-2-yl)piperazin-2-yl)methyl)methanesulfonamide] | 100 to 1000 | 500 to 5000 |  |
| CC1CC(C(N)=O)C(C)N(c2ccnc(-c3cnc4ccc(Cl)cn34)n2)C1 (centres unmarked) [I-50, 1-[2-(6-Chloroimidazo[1,2-a]pyridin-3-yl)pyrimidin-4-yl]-2,5-dimethyl-piperidine-3-carboxamide] |  | 500 to 5000 | < 10 |
| NC(=O)C1CN(c2ccnc(-c3cnc4ccc(Cl)cn34)n2)CCN1C1CC1 (centres unmarked) [I-286, 4-(2-(6-chloroimidazo[1,2-a]pyridin-3-yl)pyrimidin-4-yl)-1-cyclopropylpiperazine-2-carboxamide] | < 10 | 500 to 5000 |  |
| OCC1CCN(c2ccnc(-c3cnc4cc(F)c(Cl)cn34)n2)CC1c1ccccc1 (centres unmarked) [I-83, {1-[2-(6-Chloro-7-fluoro-imidazo[1,2-a]pyridin-3-yl)-pyrimidin-4-yl]-3-phenyl-piperidin-4-yl}-methanol] |  | 500 to 5000 | 10 to 100 |
